Values of other authors as cited in patent US20230405009A1, “METHODS FOR TREATING HEMATOLOGIC MALIGNANCIES WITH AMINO-PYRROLOPYRIMIDINONE COMPOUNDS” (Merck Sharp & Dohme LLC, priority 2020, published 2023).

How the values were obtained:
CLL mouse models = details: Reiff et al. Cancer Discovery 2018
DLBCL mouse models = details: Reiff et al. Cancer Discovery 2018

O=C(c1ccc(Oc2ccccc2)cc1Cl)c1c[nH]c2ncnc(N[C@@H]3CC[C@@H](CO)OC3)c12 [Compound A]
efficacy compared with ibrutinib in CLL mouse models (CLL mouse models): superiority over ibrutinib | efficacy compared with ibrutinib in DLBCL mouse models (DLBCL mouse models): superiority over ibrutinib
